# Measurements taken from patent US9833497B2, “Human originated EGF domain proteins and use of the same” (CHENGDU SOURCEBIO LIMITED-LIABILITY COMPANY, priority 2013, dated 2017).
# Columns and labels:
# Assay type in all cases: cell-based
# E. coli BL21 = assay: MIC against Gram-negative bacteria: E. coli BL21; conditions: 5×10^5 CFU/mL
# How it was run: (§1)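 Inocula prepared by growing LB cultures at 37° C to 0.5 McFarland, centrifuging at 4000×g, and resuspending in fresh medium. Final density 5×10^5 CFU/mL per well with two-fold dilutions of purified EGF domain protein; shaking incubation at 37° C.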
# Moraxella catarrhalis = assay: MIC against Gram-negative bacteria: Moraxella catarrhalis; conditions: 5×10^5 CFU/mL
# How it was run: as §1
# Proteus mirabilis = assay: MIC against Gram-negative bacteria: Proteus mirabilis; conditions: 5×10^5 CFU/mL
# How it was run: as §1
# E. coli DH5α = assay: Antibacterial activity: MIC and growth curve against E. coli DH5α in 96-well plate; conditions: minimal inhibitory concentration against E. coli DH5α; 96-well plate, 5×10^5 CFU/mL, 37° C., judged after 8 h
# How it was run: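 Log-phase bacteria (OD600 ~0.5) resuspended in LB at 5×10^5 CFU/mL, exposed to recombinant protein at 50, 25, 12.5 μg/mL final in triplicate, 37 °C shaking at 175 rpm. OD600 read every 30 min; MIC is lowest concentration showing no growth.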
# Aeromonas hydrophila = assay: MIC against Gram-negative bacteria: Aeromonas hydrophila; conditions: 5×10^5 CFU/mL
# How it was run: as §1
# Citrobacter diversus = assay: MIC against Gram-negative bacteria: Citrobacter diversus; conditions: 5×10^5 CFU/mL
# How it was run: as §1
# Enterobacter cloacae = assay: MIC against Gram-negative bacteria: Enterobacter cloacae; conditions: 5×10^5 CFU/mL
# How it was run: as §1
# Klebsiella pneumonia = assay: MIC against Gram-negative bacteria: Klebsiella pneumonia; conditions: 5×10^5 CFU/mL
# How it was run: as §1
# Proteus vulgaris = assay: MIC against Gram-negative bacteria: Proteus vulgaris; conditions: 5×10^5 CFU/mL
# How it was run: as §1
# Pseudomonas aeruginosa = assay: MIC against Gram-negative bacteria: Pseudomonas aeruginosa; conditions: 5×10^5 CFU/mL
# How it was run: as §1
# Serratia marcescens = assay: MIC against Gram-negative bacteria: Serratia marcescens; conditions: 5×10^5 CFU/mL
# How it was run: as §1
# [1] = E. coli BL21, 10 h cultivation at 37° C.
# [2] = E. coli BL21, 96-well plate, 37° C., 10 h
# [3] = Moraxella catarrhalis, 96-well plate, 37° C., 10 h
# [4] = Proteus mirabilis, 96-well plate, 37° C., 10 h
# [5] = Aeromonas hydrophila, 96-well plate, 37° C., 10 h
# [6] = Citrobacter diversus, 96-well plate, 37° C., 10 h
# [7] = Enterobacter cloacae, 96-well plate, 37° C., 10 h
# [8] = Klebsiella pneumonia, 96-well plate, 37° C., 10 h
# [9] = Proteus vulgaris, 96-well plate, 37° C., 10 h
# [10] = Pseudomonas aeruginosa, 96-well plate, 37° C., 10 h
# [11] = Serratia marcescens, 96-well plate, 37° C., 10 h
# [12] = 10 h cultivation at 37° C., two-fold serial dilution
# [13] = M. catarrhalis, 10 h cultivation at 37° C.
# [14] = P. mirabilis, 10 h cultivation at 37° C.
# [15] = A. hydrophila, 10 h cultivation at 37° C.
# [16] = C. diversus, 10 h cultivation at 37° C.
# [17] = E. cloacae, 10 h cultivation at 37° C.
# [18] = K. pneumonia, 10 h cultivation at 37° C.
# [19] = P. vulgaris, 10 h cultivation at 37° C.
# [20] = P. aeruginosa, 10 h cultivation at 37° C.
# [21] = S. marcescens, 10 h cultivation at 37° C.
substance,measurement,setting,value
PRT557 (CGCSPAGTLPEGCDEAGRCLCQPEFAGPHCDRCRPGYHGFPNCQA; listed as Homo sapiens),MIC against E. coli BL21,"E. coli BL21; 96-well plate, 37° C., 10 h",25 µg/mL
same,MIC against M. catarrhalis,"Moraxella catarrhalis; 96-well plate, 37° C., 10 h",25 µg/mL
same,MIC against P. mirabilis,"Proteus mirabilis; 96-well plate, 37° C., 10 h",12.5 µg/mL
same,MIC,E. coli DH5α,12.5 µg/mL
same,MIC against A. hydrophila,"Aeromonas hydrophila; 96-well plate, 37° C., 10 h",25 µg/mL
same,MIC against C. diversus,"Citrobacter diversus; 96-well plate, 37° C., 10 h",12.5 µg/mL
same,MIC against E. cloacae,"Enterobacter cloacae; 96-well plate, 37° C., 10 h",12.5 µg/mL
same,MIC against K. pneumonia,"Klebsiella pneumonia; 96-well plate, 37° C., 10 h",25 µg/mL
same,MIC against P. vulgaris,"Proteus vulgaris; 96-well plate, 37° C., 10 h",25 µg/mL
same,MIC against P. aeruginosa,"Pseudomonas aeruginosa; 96-well plate, 37° C., 10 h",12.5 µg/mL
same,MIC against S. marcescens,"Serratia marcescens; 96-well plate, 37° C., 10 h",12.5 µg/mL
PRT1347 (NVDECLSQPCKNGATCKDGANSFRCLCAAGFTGSHCE; listed as Homo sapiens),MIC against E. coli BL21,E. coli BL21; [1],12.5 µg/mL
same,MIC against M. catarrhalis,"Moraxella catarrhalis; Moraxella catarrhalis, 10 h cultivation at 37° C.",25 µg/mL
same,MIC against P. mirabilis,"Proteus mirabilis; Proteus mirabilis, 10 h cultivation at 37° C.",50 µg/mL
same,MIC,E. coli DH5α,25 µg/mL
same,MIC against A. hydrophila,"Aeromonas hydrophila; Aeromonas hydrophila, 10 h cultivation at 37° C.",25 µg/mL
same,MIC against C. diversus,"Citrobacter diversus; Citrobacter diversus, 10 h cultivation at 37° C.",12.5 µg/mL
same,MIC against E. cloacae,"Enterobacter cloacae; Enterobacter cloacae, 10 h cultivation at 37° C.",25 µg/mL
same,MIC against K. pneumonia,"Klebsiella pneumonia; Klebsiella pneumonia, 10 h cultivation at 37° C.",50 µg/mL
same,MIC against P. vulgaris,"Proteus vulgaris; Proteus vulgaris, 10 h cultivation at 37° C.",100 µg/mL
same,MIC against P. aeruginosa,"Pseudomonas aeruginosa; Pseudomonas aeruginosa, 10 h cultivation at 37° C.",25 µg/mL
same,MIC against S. marcescens,"Serratia marcescens; Serratia marcescens, 10 h cultivation at 37° C.",12.5 µg/mL
PRT1205 (EHDECITNQHNCDENALCFNTVGGHNCVCKPGYTGNGTTCK; listed as Homo sapiens),MIC against E. coli BL21,E. coli BL21; [2],12.5 µg/mL
same,MIC against M. catarrhalis,Moraxella catarrhalis; [3],25 µg/mL
same,MIC against P. mirabilis,Proteus mirabilis; [4],50 µg/mL
same,MIC,E. coli DH5α,25 µg/mL
same,MIC against A. hydrophila,Aeromonas hydrophila; [5],50 µg/mL
same,MIC against C. diversus,Citrobacter diversus; [6],12.5 µg/mL
same,MIC against E. cloacae,Enterobacter cloacae; [7],12.5 µg/mL
same,MIC against K. pneumonia,Klebsiella pneumonia; [8],25 µg/mL
same,MIC against P. vulgaris,Proteus vulgaris; [9],12.5 µg/mL
same,MIC against P. aeruginosa,Pseudomonas aeruginosa; [10],50 µg/mL
same,MIC against S. marcescens,Serratia marcescens; [11],25 µg/mL
PRT1303 (HGLCRSVEKDSVVCECRPGWTGPLCD; listed as Homo sapiens),MIC against E. coli BL21,E. coli BL21; [2],50 µg/mL
same,MIC against M. catarrhalis,Moraxella catarrhalis; [3],12.5 µg/mL
same,MIC against P. mirabilis,Proteus mirabilis; [4],25 µg/mL
same,MIC,E. coli DH5α,12.5 µg/mL
same,MIC against A. hydrophila,Aeromonas hydrophila; [5],50 µg/mL
same,MIC against C. diversus,Citrobacter diversus; [6],12.5 µg/mL
same,MIC against E. cloacae,Enterobacter cloacae; [7],12.5 µg/mL
same,MIC against K. pneumonia,Klebsiella pneumonia; [8],50 µg/mL
same,MIC against P. vulgaris,Proteus vulgaris; [9],12.5 µg/mL
same,MIC against P. aeruginosa,Pseudomonas aeruginosa; [10],12.5 µg/mL
same,MIC against S. marcescens,Serratia marcescens; [11],25 µg/mL
PRT1175 (AEHACLSDPCHNRGSCKETSLGFECECSPGWTGPTCS; listed as Homo sapiens),MIC E. coli BL21,E. coli BL21; [12],25 µg/mL
same,MIC M. catarrhalis,Moraxella catarrhalis; [12],12.5 µg/mL
same,MIC P. mirabilis,Proteus mirabilis; [12],25 µg/mL
same,MIC,E. coli DH5α,12.5 µg/mL
same,MIC A. hydrophila,Aeromonas hydrophila; [12],50 µg/mL
same,MIC C. diversus,Citrobacter diversus; [12],25 µg/mL
same,MIC E. cloacae,Enterobacter cloacae; [12],12.5 µg/mL
same,MIC K. pneumonia,Klebsiella pneumonia; [12],25 µg/mL
same,MIC P. vulgaris,Proteus vulgaris; [12],50 µg/mL
same,MIC P. aeruginosa,Pseudomonas aeruginosa; [12],50 µg/mL
same,MIC S. marcescens,Serratia marcescens; [12],25 µg/mL
PRT558 (CTCDPRGALDQLCGAGGLCRCRPGYTGTACQECSPGFHGFPSCVP; listed as Homo sapiens),MIC against E. coli BL21,"E. coli BL21; 96-well plate, 37° C., 10 h",25 µg/mL
same,MIC against M. catarrhalis,"Moraxella catarrhalis; 96-well plate, 37° C., 10 h",25 µg/mL
same,MIC against P. mirabilis,"Proteus mirabilis; 96-well plate, 37° C., 10 h",50 µg/mL
same,MIC,E. coli DH5α,12.5 µg/mL
same,MIC against A. hydrophila,"Aeromonas hydrophila; 96-well plate, 37° C., 10 h",25 µg/mL
same,MIC against C. diversus,"Citrobacter diversus; 96-well plate, 37° C., 10 h",12.5 µg/mL
same,MIC against E. cloacae,"Enterobacter cloacae; 96-well plate, 37° C., 10 h",50 µg/mL
same,MIC against K. pneumonia,"Klebsiella pneumonia; 96-well plate, 37° C., 10 h",25 µg/mL
same,MIC against P. vulgaris,"Proteus vulgaris; 96-well plate, 37° C., 10 h",25 µg/mL
same,MIC against P. aeruginosa,"Pseudomonas aeruginosa; 96-well plate, 37° C., 10 h",12.5 µg/mL
same,MIC against S. marcescens,"Serratia marcescens; 96-well plate, 37° C., 10 h",12.5 µg/mL
PRT775 (SSLKCPDACNAQHKQCLIKKSGGAPECACVPGYQEDANGNCQ; listed as Homo sapiens),MIC (μg/mL) E. coli BL21,E. coli BL21; [1],25 µg/mL
same,MIC (μg/mL) M. catarrhalis,Moraxella catarrhalis; [13],12.5 µg/mL
same,MIC (μg/mL) P. mirabilis,Proteus mirabilis; [14],50 µg/mL
same,MIC,E. coli DH5α,12.5 µg/mL
same,MIC (μg/mL) A. hydrophila,Aeromonas hydrophila; [15],12.5 µg/mL
same,MIC (μg/mL) C. diversus,Citrobacter diversus; [16],50 µg/mL
same,MIC (μg/mL) E. cloacae,Enterobacter cloacae; [17],50 µg/mL
same,MIC (μg/mL) K. pneumonia,Klebsiella pneumonia; [18],12.5 µg/mL
same,MIC (μg/mL) P. vulgaris,Proteus vulgaris; [19],12.5 µg/mL
same,MIC (μg/mL) P. aeruginosa,Pseudomonas aeruginosa; [20],50 µg/mL
same,MIC (μg/mL) S. marcescens,Serratia marcescens; [21],50 µg/mL
PRT517 (CQCFGHAESCDDVTGECLNCKDHTGGPYCDKCLPGFYGEPTKGTSEDCQP; listed as Homo sapiens),MIC against E. coli BL21,"E. coli BL21; 96-well plate, 37° C., 10 h",12.5 µg/mL
same,MIC against M. catarrhalis,"Moraxella catarrhalis; 96-well plate, 37° C., 10 h",50 µg/mL
same,MIC against P. mirabilis,"Proteus mirabilis; 96-well plate, 37° C., 10 h",25 µg/mL
same,MIC,E. coli DH5α,25 µg/mL
same,MIC against A. hydrophila,"Aeromonas hydrophila; 96-well plate, 37° C., 10 h",12.5 µg/mL
same,MIC against C. diversus,"Citrobacter diversus; 96-well plate, 37° C., 10 h",25 µg/mL
same,MIC against E. cloacae,"Enterobacter cloacae; 96-well plate, 37° C., 10 h",25 µg/mL
same,MIC against K. pneumonia,"Klebsiella pneumonia; 96-well plate, 37° C., 10 h",50 µg/mL
same,MIC against P. vulgaris,"Proteus vulgaris; 96-well plate, 37° C., 10 h",12.5 µg/mL
same,MIC against P. aeruginosa,"Pseudomonas aeruginosa; 96-well plate, 37° C., 10 h",25 µg/mL
same,MIC against S. marcescens,"Serratia marcescens; 96-well plate, 37° C., 10 h",25 µg/mL
PRT422 (DVDECALGTHNCSEAETCHNIQGSFRCLRFECPPNYVQVSKTKCE; listed as Homo sapiens),MIC,E. coli BL21; [1],25 µg/mL
same,MIC,Moraxella catarrhalis; [13],12.5 µg/mL
same,MIC,Proteus mirabilis; [14],25 µg/mL
same,MIC,E. coli DH5α,12.5 µg/mL
same,MIC,Aeromonas hydrophila; [15],25 µg/mL
same,MIC,Citrobacter diversus; [16],12.5 µg/mL
same,MIC,Enterobacter cloacae; [17],12.5 µg/mL
same,MIC,Klebsiella pneumonia; [18],25 µg/mL
same,MIC,Proteus vulgaris; [19],12.5 µg/mL
same,MIC,Pseudomonas aeruginosa; [20],12.5 µg/mL
same,MIC,Serratia marcescens; [21],25 µg/mL
PRT795 (WGFGCNLTCQCLNGGACNTLDGTCTCAPGWRGEKCE; listed as Homo sapiens),MIC (μg/mL) E. coli BL21,E. coli BL21; [1],25 µg/mL
same,MIC (μg/mL) M. catarrhalis,Moraxella catarrhalis; [13],25 µg/mL
same,MIC (μg/mL) P. mirabilis,Proteus mirabilis; [14],25 µg/mL
same,MIC,E. coli DH5α,50 µg/mL
same,MIC (μg/mL) A. hydrophila,Aeromonas hydrophila; [15],25 µg/mL
same,MIC (μg/mL) C. diversus,Citrobacter diversus; [16],50 µg/mL
same,MIC (μg/mL) E. cloacae,Enterobacter cloacae; [17],12.5 µg/mL
same,MIC (μg/mL) K. pneumonia,Klebsiella pneumonia; [18],50 µg/mL
same,MIC (μg/mL) P. vulgaris,Proteus vulgaris; [19],25 µg/mL
same,MIC (μg/mL) P. aeruginosa,Pseudomonas aeruginosa; [20],50 µg/mL
same,MIC (μg/mL) S. marcescens,Serratia marcescens; [21],50 µg/mL
